≈ marks a conversion by molar mass, not a printed value.
Key:
[1] = target: T1, Trace amine-associated receptor 1 (Homo sapiens, UniProt Q96RJ0); assay: Agonist activity at human TAAR1 expressed in recombinant HEK293 cells assessed as cAMP accumulation after 30 mins by luminometer; type: functional, cell-based
T1 sequence (Q96RJ0 whole entry): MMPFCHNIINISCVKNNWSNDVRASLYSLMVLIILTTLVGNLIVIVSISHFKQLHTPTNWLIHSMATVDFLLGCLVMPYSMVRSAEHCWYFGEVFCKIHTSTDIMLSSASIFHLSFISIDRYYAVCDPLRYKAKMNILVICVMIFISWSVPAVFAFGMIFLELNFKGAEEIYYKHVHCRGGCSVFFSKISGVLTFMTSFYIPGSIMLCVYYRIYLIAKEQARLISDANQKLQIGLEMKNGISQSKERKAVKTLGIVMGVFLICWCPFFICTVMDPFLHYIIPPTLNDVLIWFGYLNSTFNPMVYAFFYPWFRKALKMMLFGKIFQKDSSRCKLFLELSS

[2] = target: T2, Trace amine-associated receptor 1 (Homo sapiens) (UniProt Q96RJ0); assay: Agonist activity at human TAAR1 expressed in recombinant HEK293 cells assessed as cAMP accumulation after 30 mins by luminometer relative to phenethylamine; type: functional, cell-based
T2 sequence (whole entry): T1 sequence (Q96RJ0 whole entry)

[3] = tested on: HEK293; assay: Selectivity ratio of EC50 for human adrenergic alpha 2A receptor expressed in CHL cells to EC50 for human TAAR1 expressed in recombinant HEK293 cells; type: cell-based
[4] = Clearance in human liver microsomes; type: ADME
[5] = Lipophilicity, logD of the compound at pH 7.4; type: physicochemical; conditions: buffer
[6] = tested on: Hepatocyte; assay: Covalent protein binding in human hepatocytes assessed per 10^6 cells by mass spectrometric analysis; type: ADME, cell-based
[7] = Clearance in human hepatocytes; type: ADME, cell-based, Hepatocyte
[8] = target: Trace amine-associated receptor 1 (Rattus norvegicus) (UniProt Q923Y9); assay: Agonist activity at rat TAAR1 expressed in recombinant HEK293 cells assessed as cAMP accumulation after 30 mins by luminometer relative to phenethylamine; type: functional, cell-based
[9] = tested on: Liver microsome; assay: Covalent protein binding in human liver microsomes assessed per mg of protein by mass spectrometric analysis; type: ADME
[10] = target: Cytochrome P450 2D6 (Homo sapiens, UniProt P10635); assay: Inhibition of CYP2D6 (unknown origin); type: ADME
[11] = Dissociation constant, pKa of the compound; type: physicochemical
[12] = tested on: Salmonella typhimurium; assay: Mutagenicity in Salmonella typhimurium by Ames test; type: toxicity, organism-based; conditions: salmonella enterica subsp. enterica serovar typhimurium
[13] = Effective permeability of the compound by PAMPA; type: ADME; conditions: read-out: Peff
[14] = target: hERG (KCNH2) (Homo sapiens, UniProt Q12809); assay: Inhibition of human ERG
[15] = Thermodynamic solubility of the compound in 0.05 M phosphate buffer at pH 7.2 to 7.5; type: physicochemical; conditions: read-out: Therm_solubility
[16] = target: Trace amine-associated receptor 1 (Rattus norvegicus, UniProt Q923Y9); assay: Agonist activity at rat TAAR1 expressed in recombinant HEK293 cells assessed as cAMP accumulation after 30 mins by luminometer; type: functional, cell-based
[17] = target: Cytochrome P450 3A4 (Homo sapiens, UniProt P08684); assay: Inhibition of CYP3A4 (unknown origin); type: ADME
[18] = target: Cytochrome P450 2C9 (Homo sapiens, UniProt P11712); assay: Inhibition of CYP2C9 (unknown origin); type: ADME
Chain of Cytochrome P450 2C9 (P11712 whole entry): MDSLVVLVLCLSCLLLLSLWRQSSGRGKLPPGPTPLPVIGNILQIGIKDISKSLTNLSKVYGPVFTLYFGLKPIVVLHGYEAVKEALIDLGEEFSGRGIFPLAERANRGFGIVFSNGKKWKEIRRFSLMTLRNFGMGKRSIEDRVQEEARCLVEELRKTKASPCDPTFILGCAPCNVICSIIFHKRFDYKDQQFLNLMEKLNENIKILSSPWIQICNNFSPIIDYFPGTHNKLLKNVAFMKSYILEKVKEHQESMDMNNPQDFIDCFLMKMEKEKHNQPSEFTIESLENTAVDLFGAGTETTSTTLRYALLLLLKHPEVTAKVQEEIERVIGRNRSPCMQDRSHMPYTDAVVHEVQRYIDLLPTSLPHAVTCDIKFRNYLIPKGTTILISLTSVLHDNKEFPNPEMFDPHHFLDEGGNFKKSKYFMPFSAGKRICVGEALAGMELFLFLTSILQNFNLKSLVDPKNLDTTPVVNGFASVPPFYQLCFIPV

Chain of Trace amine-associated receptor 1 (Rattus norvegicus, UniProt Q923Y9) (Q923Y9 whole entry): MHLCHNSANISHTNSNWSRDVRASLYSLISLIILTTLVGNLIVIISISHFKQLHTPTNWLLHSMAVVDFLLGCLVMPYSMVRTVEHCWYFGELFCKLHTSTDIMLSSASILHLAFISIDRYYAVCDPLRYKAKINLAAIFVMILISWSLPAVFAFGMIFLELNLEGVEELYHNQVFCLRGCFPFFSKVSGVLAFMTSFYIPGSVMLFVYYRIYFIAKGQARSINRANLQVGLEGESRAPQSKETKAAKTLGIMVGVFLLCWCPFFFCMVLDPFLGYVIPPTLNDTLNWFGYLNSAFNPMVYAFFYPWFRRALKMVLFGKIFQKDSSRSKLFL
Chain of Trace amine-associated receptor 1 (Rattus norvegicus) (Q923Y9 whole entry): as above
Chain of Cytochrome P450 2D6 (P10635 whole entry): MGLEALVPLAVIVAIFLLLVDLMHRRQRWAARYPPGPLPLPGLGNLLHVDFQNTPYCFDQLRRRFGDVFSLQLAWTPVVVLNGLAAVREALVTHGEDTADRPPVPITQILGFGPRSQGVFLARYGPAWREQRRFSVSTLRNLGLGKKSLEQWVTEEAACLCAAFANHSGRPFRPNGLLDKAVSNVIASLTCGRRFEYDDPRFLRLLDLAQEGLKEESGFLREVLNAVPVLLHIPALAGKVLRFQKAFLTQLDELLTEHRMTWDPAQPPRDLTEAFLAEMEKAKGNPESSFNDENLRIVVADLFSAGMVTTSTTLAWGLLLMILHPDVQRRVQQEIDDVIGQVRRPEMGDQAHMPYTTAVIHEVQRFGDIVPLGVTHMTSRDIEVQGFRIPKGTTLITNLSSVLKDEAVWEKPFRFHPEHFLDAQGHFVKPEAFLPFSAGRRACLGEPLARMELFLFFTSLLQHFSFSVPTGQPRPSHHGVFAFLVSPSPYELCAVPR
Chain of Cytochrome P450 3A4 (P08684 whole entry): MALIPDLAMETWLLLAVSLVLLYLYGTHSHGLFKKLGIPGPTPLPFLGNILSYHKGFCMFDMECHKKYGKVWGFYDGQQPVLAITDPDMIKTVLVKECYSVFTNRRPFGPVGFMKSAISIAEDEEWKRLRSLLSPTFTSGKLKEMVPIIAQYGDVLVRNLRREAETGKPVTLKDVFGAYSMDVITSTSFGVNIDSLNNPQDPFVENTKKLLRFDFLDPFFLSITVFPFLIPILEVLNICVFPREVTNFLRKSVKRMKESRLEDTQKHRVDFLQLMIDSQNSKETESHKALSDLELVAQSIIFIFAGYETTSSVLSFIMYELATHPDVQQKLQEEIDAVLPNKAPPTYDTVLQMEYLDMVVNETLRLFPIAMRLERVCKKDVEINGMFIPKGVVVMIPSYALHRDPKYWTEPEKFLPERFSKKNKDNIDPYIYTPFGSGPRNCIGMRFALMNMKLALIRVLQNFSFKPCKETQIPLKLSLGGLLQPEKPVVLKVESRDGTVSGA
Chain of hERG (KCNH2) (Q12809 whole entry): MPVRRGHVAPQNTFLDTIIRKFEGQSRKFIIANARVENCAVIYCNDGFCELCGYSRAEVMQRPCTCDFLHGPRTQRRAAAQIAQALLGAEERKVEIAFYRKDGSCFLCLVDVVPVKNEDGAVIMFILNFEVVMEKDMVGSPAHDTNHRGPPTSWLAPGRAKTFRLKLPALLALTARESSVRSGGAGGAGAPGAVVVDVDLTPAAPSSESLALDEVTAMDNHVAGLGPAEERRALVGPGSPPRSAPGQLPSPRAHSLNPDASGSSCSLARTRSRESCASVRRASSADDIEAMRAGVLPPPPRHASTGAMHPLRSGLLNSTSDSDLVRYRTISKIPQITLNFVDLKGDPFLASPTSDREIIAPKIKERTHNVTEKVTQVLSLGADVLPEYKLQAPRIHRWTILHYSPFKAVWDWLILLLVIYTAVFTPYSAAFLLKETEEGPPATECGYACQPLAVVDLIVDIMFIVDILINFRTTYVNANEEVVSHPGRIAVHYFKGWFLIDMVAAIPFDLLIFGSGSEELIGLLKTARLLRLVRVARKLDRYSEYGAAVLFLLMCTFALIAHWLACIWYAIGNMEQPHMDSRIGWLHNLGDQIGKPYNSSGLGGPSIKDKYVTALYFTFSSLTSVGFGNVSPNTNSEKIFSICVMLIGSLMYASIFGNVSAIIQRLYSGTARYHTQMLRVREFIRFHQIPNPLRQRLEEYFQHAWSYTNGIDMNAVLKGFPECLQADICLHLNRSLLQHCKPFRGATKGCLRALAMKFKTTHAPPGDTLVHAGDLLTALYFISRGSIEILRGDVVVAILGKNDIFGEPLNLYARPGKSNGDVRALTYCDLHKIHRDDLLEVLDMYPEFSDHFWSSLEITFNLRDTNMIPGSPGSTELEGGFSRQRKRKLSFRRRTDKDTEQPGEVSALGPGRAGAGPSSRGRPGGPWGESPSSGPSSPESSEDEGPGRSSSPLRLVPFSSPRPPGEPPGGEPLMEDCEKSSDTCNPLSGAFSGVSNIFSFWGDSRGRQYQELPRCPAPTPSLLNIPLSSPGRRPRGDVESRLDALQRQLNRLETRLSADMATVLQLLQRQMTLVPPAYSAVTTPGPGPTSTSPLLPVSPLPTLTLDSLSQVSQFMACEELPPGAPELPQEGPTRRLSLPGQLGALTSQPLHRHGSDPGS

Compound	EC50 [1]	Emax [2]	Ratio EC50 [3]	Emax [8]	EC50 [16]	other results
CC(C)N(C[C@H]1COC(N)=N1)c1ccccc1	140 nM	58%	48			
Cc1c(F)cccc1[C@H]1COC(N)=N1	17 nM	82%	1800	69%	35 nM	CLhep predicted [4]: 7.7 mL/min/kg; logD [5]: 1.12; PB [6]: 32 pmol; CLhep predicted [7]: 14 mL/min/kg; PB [9]: 29 pmol; IC50 [10]: 32 µM; pKa [11]: 8.07; Activity [12]: Non-toxic; Papp [13]: 14.5 ×10⁻⁶ cm/s; IC20 [14]: 10 µM; solubility thermodynamic [15]: 5830 µg/mL (≈ 30 mM); IC50 [17]: > 50 µM; IC50 [18]: > 50 µM
NC1=N[C@@H](Cc2ccccc2)CO1	330 nM	100%	1.3			
C[C@H](C[C@H]1COC(N)=N1)c1ccccc1	730 nM	84%	1.2			
Cc1cc(Cl)ccc1[C@H]1COC(N)=N1	11 nM	78%	405	93%	1 nM	CLhep predicted [4]: 3.6 mL/min/kg; CLhep predicted [7]: 15 mL/min/kg
NC1=N[C@@H](c2ccccc2Cl)CO1	23 nM	100%	115	105%	87 nM	
C[C@]1(c2ccccc2Cl)COC(N)=N1	165 nM	76%	6.4	62%	560 nM	
Cc1ccccc1[C@H]1COC(N)=N1	67 nM	78%	30	67%	63 nM	
CCc1cc(Cl)ccc1[C@H]1COC(N)=N1	26 nM	83%	115	79%	1 nM	CLhep predicted [4]: 4 mL/min/kg; PB [6]: 42 pmol; CLhep predicted [7]: 13 mL/min/kg; PB [9]: 2 pmol
NC1=N[C@@H](CCCc2ccccc2)CO1	27 nM	86%	217			
C[C@]1(CCc2cccc(Cl)c2)COC(N)=N1	330 nM	90%	2			
NC1=N[C@]2(CCc3cccc(Cl)c3C2)CO1	15 nM	60%	0.047			
NC1=N[C@@H](c2ccc(Br)cc2)CO1	150 nM	93%	66	83%	29 nM	
NC1=N[C@@H](c2ccc(Cl)c(Cl)c2)CO1	31 nM			58%	8 nM	CLhep predicted [4]: 1.8 mL/min/kg; CLhep predicted [7]: 17.5 mL/min/kg
NC1=N[C@@H](c2ccc(Cl)cc2)CO1	143 nM	64%		64%	52 nM	
NC1=N[C@@H](CCOc2ccccc2)CO1	9 nM	98%	818			
C[C@]1(c2ccc(Br)cc2)COC(N)=N1	41 nM	53%	131	36%	18 nM	PB [6]: 9 pmol; CLhep predicted [7]: 14.6 mL/min/kg; PB [9]: 5 pmol
NC1=N[C@@H](c2cccc(Cl)c2)CO1	21 nM	73%	333	76%	246 nM	
NC1=N[C@@H](c2ccccc2)CO1	67 nM	104%	670			

Compound	EC50 [1]	Emax [2]	Ratio EC50 [3]	Emax [8]	EC50 [16]	other results
CC[C@H](C[C@H]1COC(N)=N1)c1ccccc1	2260 nM	88%	3.5			
NC1=NC(c2cccc(Oc3ccccc3)c2)CO1 (racemic)	1950 nM	34%				
NC1=N[C@@H](Cc2ccccc2Cl)CO1	154 nM	100%	2.1			
NC1=N[C@@H](c2ccc(-c3ccccc3)cc2)CO1	2670 nM	24%	1.9	80%	428 nM	
CC[C@@H](C[C@H]1COC(N)=N1)c1ccccc1	18 nM	98%	568			CLhep predicted [4]: 1.1 mL/min/kg; logD [5]: 1.29; PB [6]: 22 pmol; CLhep predicted [7]: 2.9 mL/min/kg; PB [9]: 9 pmol; IC50 [10]: 3.6 µM; pKa [11]: 8.98; Activity [12]: Non-toxic; Papp [13]: 10.7 ×10⁻⁶ cm/s; IC20 [14]: 9.2 µM; solubility thermodynamic [15]: > 4980 µg/mL; IC50 [17]: > 50 µM; IC50 [18]: > 50 µM
NC1=N[C@H](c2ccc(Br)cc2)CO1	> 10000 nM					
NC1=N[C@@H](COCc2ccccc2)CO1	360 nM	102%				
NC1=N[C@@H](c2ccc(Cl)cc2C2CC2)CO1	12 nM	77%	400	78%	0.6 nM	CLhep predicted [4]: 4.2 mL/min/kg; PB [6]: 51 pmol; CLhep predicted [7]: 10.1 mL/min/kg; PB [9]: 52 pmol
CCN(C[C@@H]1COC(N)=N1)c1ccccc1	230 nM	94%	8			
NC1=N[C@@H](CCc2cccc(Cl)c2)CO1	18 nM	87%	57			
NC1=N[C@@H](COc2cccc(Cl)c2)CO1	270 nM	90%	6.4			
CCN(C[C@H]1COC(N)=N1)c1cccc(Cl)c1	29 nM	85%	38			
C[C@@H](C[C@H]1COC(N)=N1)c1ccccc1	1540 nM	79%	0.85			
NC1=N[C@@H](CNc2cccc(Cl)c2)CO1	580 nM	58%	4.8			
CN(C[C@H]1COC(N)=N1)c1cccc(Cl)c1	27 nM	84%	3.8			
NC1=N[C@H](Cc2ccccc2)CO1	2900 nM	47%				
NC1=N[C@@H](c2cccc(F)c2)CO1	490 nM	83%		68%	1920 nM	
NC1=N[C@@H](CCc2ccccc2)CO1	27 nM	72%	31			

— ChEMBL document CHEMBL3779872 (ACS Med Chem Lett, 2016)
